Patent US9723837B2, “Imidazole derivatives useful for controlling microbial growth” (North Carolina State University, priority 2012, dated 2017)
Values after ≈ are worked out from the molar mass of the structure shown.

Key:
MRSA ATCC BAA 44 = assay: Broth microdilution MIC, MRSA ATCC BAA 44; type: cell-based, Staphylococcus aureus; settings: for MIC MRSA: Table 2 pilot library screen; for MIC MRSA BAA 44: Table 3 nine-strain screen
Description: (§1) Each member of the pilot library was tested for antibiotic activity. Activity was quantified by measuring the MIC of each derivative against a variety of representative pathogenic bacterial strains using the microdilution protocol (CSLI, Performance Standards for Antimicrobial Susceptibility Testing; Nineteenth Informational Supplement, Clinical and Laboratory Standards Institute, Wayne, Pa., 2009). A. baumannii, E. coli, MSSA, and MRSA were used for initial evaluation. […] Compounds 4d, 4n, and 4o were determined to be the lead compounds.
(§2) Once it was noted that compounds were active against MSSA and MRSA, the library was tested against various MRSA strains isolated from a nosocomial environment. MRSA has emerged as a major cause of illness and death in hospitals. These illnesses include lower respiratory tract infections, surgical site infections, cardiovascular infections and pneumonia. Nine different MRSA strains were obtained, and lead compounds 4d and 4o were screened for activity.
(§3) Broth Microdilution Method for MIC Determination.
(§4) Overnight cultures of bacterial strain were subcultured to 5×10^5 CFU/mL in Mueller-Hinton medium (Fluka #70192). The resulting bacterial suspension was aliquoted (1.0 mL) into culture tubes. Samples were prepared from these culture tubes containing either 256 μg/mL of specified antibiotic or no test compound as a control. Samples were then aliquoted (200 μL) into the first row of wells of a 96-well microtiter plate in which subsequent wells were prefilled with 100 μL of Mueller-Hinton medium based 5×10^5 CFU/mL bacterial subculture. Using the multichannel pipettor set at 100 μL, row one wells were mixed 8-10 times. Then, 100 μL were withdrawn and transferred to row two. Row two wells were mixed 8-10 times followed by a 100 μL transfer from row two to row three. This procedure was used to serial dilute the rest of the rows of the microtier plate. The microtiter plate sample was then covered with a microtiter plate lid and then placed in a covered plastic container. The chamber was incubated under stationary conditions at 37° C.

E. coli = assay: Broth microdilution MIC, E. coli; type: cell-based; settings: Mueller-Hinton medium, 37° C., 16 hours
Description: as §1, §3, §4

MSSA = assay: Broth microdilution MIC, MSSA; type: cell-based, Staphylococcus aureus; settings: Mueller-Hinton medium, 37° C., 16 hours
Description: as §1, §3, §4

A. baumannii = assay: Broth microdilution MIC, A. baumannii; type: cell-based; settings: Mueller-Hinton medium, 37° C., 16 hours
Description: as §1, §3, §4

MRSA ATCC 43300 = assay: Broth microdilution MIC, MRSA ATCC 43300; type: cell-based, Staphylococcus aureus
Description: as §2, §3
as §4, with “The microtiter plate sample was then covered with a microtiter plate lid and then placed in a covered plastic container. The chamber was incubated under stationary conditions at 37° C.” left out

MRSA ATCC 700789 = assay: Broth microdilution MIC, MRSA ATCC 700789; type: cell-based, Staphylococcus aureus
Description: as §2, §3
as §4, with “The microtiter plate sample was then covered with a microtiter plate lid and then placed in a covered plastic container. The chamber was incubated under stationary conditions at 37° C.” left out

MRSA ATCC 33591 = assay: Broth microdilution MIC, MRSA ATCC 33591; type: cell-based, Staphylococcus aureus
Description: as §2, §3
as §4, with “The microtiter plate sample was then covered with a microtiter plate lid and then placed in a covered plastic container. The chamber was incubated under stationary conditions at 37° C.” left out

MRSA ATCC BAA 811 = assay: Broth microdilution MIC, MRSA ATCC BAA 811; type: cell-based, Staphylococcus aureus
Description: as §2, §3
as §4, with “The microtiter plate sample was then covered with a microtiter plate lid and then placed in a covered plastic container. The chamber was incubated under stationary conditions at 37° C.” left out

MRSA ATCC BAA 1753 = assay: Broth microdilution MIC, MRSA ATCC BAA 1753; type: cell-based, Staphylococcus aureus
Description: as §2, §3
as §4, with “The microtiter plate sample was then covered with a microtiter plate lid and then placed in a covered plastic container. The chamber was incubated under stationary conditions at 37° C.” left out

MRSA ATCC BAA 1770 = assay: Broth microdilution MIC, MRSA ATCC BAA 1770; type: cell-based, Staphylococcus aureus
Description: as §2, §3
as §4, with “The microtiter plate sample was then covered with a microtiter plate lid and then placed in a covered plastic container. The chamber was incubated under stationary conditions at 37° C.” left out

MRSA ATCC BAA 1556 = assay: Broth microdilution MIC, MRSA ATCC BAA 1556; type: cell-based, Staphylococcus aureus
Description: as §2, §3
as §4, with “The microtiter plate sample was then covered with a microtiter plate lid and then placed in a covered plastic container. The chamber was incubated under stationary conditions at 37° C.” left out

MRSA ATCC BAA 1685 = assay: Broth microdilution MIC, MRSA ATCC BAA 1685; type: cell-based, Staphylococcus aureus
Description: as §2, §3
as §4, with “The microtiter plate sample was then covered with a microtiter plate lid and then placed in a covered plastic container. The chamber was incubated under stationary conditions at 37° C.” left out

| SMILES | MIC MRSA (MRSA ATCC BAA 44) | MIC E. coli (E. coli) | MIC MSSA (MSSA) | MIC A. baumannii (A. baumannii) | MIC MRSA 43300 (MRSA ATCC 43300) | MIC MRSA 700789 (MRSA ATCC 700789) | MIC MRSA 33591 (MRSA ATCC 33591) | MIC MRSA BAA 44 (MRSA ATCC BAA 44) | MIC MRSA BAA 811 (MRSA ATCC BAA 811) | MIC MRSA BAA 1753 (MRSA ATCC BAA 1753) | MIC MRSA BAA 1770 (MRSA ATCC BAA 1770) | MIC MRSA BAA 1556 (MRSA ATCC BAA 1556) | MIC MRSA BAA 1685 (MRSA ATCC BAA 1685) |
| --- | --- | --- | --- | --- | --- | --- | --- | --- | --- | --- | --- | --- | --- |
| Cc1nc(N)n(-c2ccccc2)c1-c1ccccc1 [Compound 4a] | 256 µg/mL (≈ 1030 µM) | 256 µg/mL (≈ 1030 µM) | 256 µg/mL (≈ 1030 µM) | 128 µg/mL (≈ 513 µM) | – | – | – | – | – | – | – | – | – |
| CCCCCCc1nc(N)n(-c2ccccc2)c1-c1ccccc1 [Compound 4b] | 8 µg/mL (≈ 25 µM) | >256 µg/mL | 16 µg/mL (≈ 50.1 µM) | >256 µg/mL | – | – | – | – | – | – | – | – | – |
| Nc1nc(-c2ccccc2)c(-c2ccccc2)n1-c1ccccc1 [Compound 4c] | >256 µg/mL | >256 µg/mL | >256 µg/mL | >256 µg/mL | – | – | – | – | – | – | – | – | – |
| CCCCCCCc1ccc(-n2c(N)nc(-c3ccccc3)c2-c2ccccc2)cc1 [Compound 4f] | >256 µg/mL | >256 µg/mL | >256 µg/mL | >256 µg/mL | – | – | – | – | – | – | – | – | – |
| CCCCCCCCCCc1ccc(-n2c(N)nc(-c3ccccc3)c2-c2ccccc2)cc1 [Compound 4i] | >256 µg/mL | >256 µg/mL | >256 µg/mL | >256 µg/mL | – | – | – | – | – | – | – | – | – |
| CCCCCCc1nc(N)n(-c2ccc(-c3ccccc3)cc2)c1-c1ccccc1 [Compound 4j] | 4 µg/mL (≈ 10.1 µM) | >256 µg/mL | 4 µg/mL (≈ 10.1 µM) | >256 µg/mL | – | – | – | – | – | – | – | – | – |
| Nc1nc(-c2ccccc2)c(-c2ccccc2)n1-c1ccc(-c2ccccc2)cc1 [Compound 4k] | >256 µg/mL | >256 µg/mL | >256 µg/mL | >256 µg/mL | – | – | – | – | – | – | – | – | – |
| CCCCCCc1nc(N)n(-c2ccccc2)c1-c1ccc(C)cc1 [Compound 4l] | 4 µg/mL (≈ 12 µM) | >256 µg/mL | 8 µg/mL (≈ 24 µM) | >256 µg/mL | – | – | – | – | – | – | – | – | – |
| Cc1ccc(-c2c(-c3ccccc3)nc(N)n2-c2ccccc2)cc1 [Compound 4m] | >256 µg/mL | >256 µg/mL | >256 µg/mL | >256 µg/mL | – | – | – | – | – | – | – | – | – |
| CCCc1ccc(-n2c(N)nc(C)c2-c2ccccc2)cc1 [Compound 4n] | 32 µg/mL (≈ 110 µM) | 64 µg/mL (≈ 220 µM) | 32 µg/mL (≈ 110 µM) | 64 µg/mL (≈ 220 µM) | – | – | – | – | – | – | – | – | – |

More lines, now with the values ahead:

| MIC MRSA (MRSA ATCC BAA 44) | MIC E. coli (E. coli) | MIC MSSA (MSSA) | MIC A. baumannii (A. baumannii) | MIC MRSA 43300 (MRSA ATCC 43300) | MIC MRSA 700789 (MRSA ATCC 700789) | MIC MRSA 33591 (MRSA ATCC 33591) | MIC MRSA BAA 44 (MRSA ATCC BAA 44) | MIC MRSA BAA 811 (MRSA ATCC BAA 811) | MIC MRSA BAA 1753 (MRSA ATCC BAA 1753) | MIC MRSA BAA 1770 (MRSA ATCC BAA 1770) | MIC MRSA BAA 1556 (MRSA ATCC BAA 1556) | MIC MRSA BAA 1685 (MRSA ATCC BAA 1685) | SMILES |
| --- | --- | --- | --- | --- | --- | --- | --- | --- | --- | --- | --- | --- | --- |
| 2 µg/mL (≈ 5.76 µM) | >256 µg/mL | 4 µg/mL (≈ 11.5 µM) | 64 µg/mL (≈ 184 µM) | 2 µg/mL (≈ 5.76 µM) | 4 µg/mL (≈ 11.5 µM) | 8 µg/mL (≈ 23 µM) | 2 µg/mL (≈ 5.76 µM) | 2 µg/mL (≈ 5.76 µM) | 4 µg/mL (≈ 11.5 µM) | 8 µg/mL (≈ 23 µM) | 4 µg/mL (≈ 11.5 µM) | 4 µg/mL (≈ 11.5 µM) | CCCCCCCc1ccc(-n2c(N)nc(C)c2-c2ccccc2)cc1 [Compound 4d] |
| 128 µg/mL (≈ 306 µM) | >256 µg/mL | >256 µg/mL | >256 µg/mL | – | – | – | – | – | – | – | – | – | CCCCCCCc1ccc(-n2c(N)nc(CCCCCC)c2-c2ccccc2)cc1 [Compound 4e] |
| 4 µg/mL (≈ 10.3 µM) | >256 µg/mL | 32 µg/mL (≈ 82.1 µM) | >256 µg/mL | – | – | – | – | – | – | – | – | – | CCCCCCCCCCc1ccc(-n2c(N)nc(C)c2-c2ccccc2)cc1 [Compound 4g] |
| >256 µg/mL | >256 µg/mL | >256 µg/mL | >256 µg/mL | – | – | – | – | – | – | – | – | – | CCCCCCCCCCc1ccc(-n2c(N)nc(CCCCCC)c2-c2ccccc2)cc1 [Compound 4h] |
| 4 µg/mL (≈ 12.5 µM) | >256 µg/mL | 8 µg/mL (≈ 25 µM) | 16 µg/mL (≈ 50.1 µM) | 8 µg/mL (≈ 25 µM) | 8 µg/mL (≈ 25 µM) | 8 µg/mL (≈ 25 µM) | 4 µg/mL (≈ 12.5 µM) | 8 µg/mL (≈ 25 µM) | 8 µg/mL (≈ 25 µM) | 8 µg/mL (≈ 25 µM) | 8 µg/mL (≈ 25 µM) | 8 µg/mL (≈ 25 µM) | CCCCCc1ccc(-n2c(N)nc(C)c2-c2ccccc2)cc1 [Compound 4o] |
